SMILES strings stand for the structures. Counter-ions that a name gives are not always drawn.

Data on twelve compounds can be found in patent EP1180513A1, “CYCLIC AMIDE COMPOUNDS, PROCESS FOR THE PREPARATION OF THE SAME AND USES THEREOF” (Takeda Chemical Industries, Ltd., priority 1999, dated 2000).

For this assay, the target named is T1, human CCR5 (Homo sapiens, UniProt P51681).
T1 construct: expressed in transfected cells
T1 sequence (P51681 whole entry): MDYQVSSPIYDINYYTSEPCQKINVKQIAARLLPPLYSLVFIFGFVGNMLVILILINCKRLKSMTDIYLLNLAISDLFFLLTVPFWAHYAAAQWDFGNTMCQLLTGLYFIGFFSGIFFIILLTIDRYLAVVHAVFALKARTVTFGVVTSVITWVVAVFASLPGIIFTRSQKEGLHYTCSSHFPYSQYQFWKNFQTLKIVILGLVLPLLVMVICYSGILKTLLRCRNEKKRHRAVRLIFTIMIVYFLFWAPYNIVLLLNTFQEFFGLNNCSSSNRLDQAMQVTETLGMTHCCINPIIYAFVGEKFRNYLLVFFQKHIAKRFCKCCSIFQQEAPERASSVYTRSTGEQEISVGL
Kind of assay: CCR5 binding inhibition: [125I]-RANTES binding to CHO/CCR5 cells. The settings on record: Test Compound 1 µM, 100 pM [125I]-RANTES as ligand, room temperature, 40 minutes, read-out: Inhibitory rate (%) at 1.0 µM. How it is done:
CHO-K1 cells were grown in 750ml of tissue culture flask (Becton Dickinson) using Ham's F12 medium (Nihon Pharmaceutical) containing 10% fetal calf serum (Life Tech Oriental) and took off with 0.5 g/L trypsin-0.2 g/L EDTA (Life Tech Oriental). The cells were washed with PBS (Life Tech Oriental), centrifuged (1000 rpm, 5 minutes), and suspended in PBS. With using Gene Pulser (Bio-Rad Laboratories), DNA was introduced into the cells under the conditions shown below. That is, to the cuvette of 0.4 cm gap were added 8×10^6 cells and 10 µg of plasmid pCKR5 for expression of human CCR5, and electroporation was carried out under 0.25 kV of voltage and 960 µF of capacitance. The cells were transferred into Ham's F12 medium containing 10% fetal calf serum, and cultivated for 24 hours. The cells were again took off and centrifuged, and suspended in Ham's F12 medium containing 10% fetal calf serum and 500 µg/ml of geneticin (Life Tech Oriental). The suspension was diluted to give 10^4 cells/ml of the suspension, which was inoculated on 96 well plate (Becton Dickinson) to give resistant cells. The resulting geneticin resistant cells were cultivated in 96 well plate (Becton Dickinson), and cells expressing CCR5 were selected from the geneticin resistant cells. That is, in assay buffer (Ham's F12 medium containing 0.5% BSA and 20 mM HEPES (Wako Pure Chemical, pH 7.2)) to which was added 200 pM of [^125I]-RANTES (Amersham) as ligand, binding reaction was carried out at room temperature for 40 minutes, and the buffer was washed with cooled PBS. To the buffer was added 50 µl/well of 1M NaOH, and the mixture was stirred. Radioactivity was determined with γ-counter to select CHO/CCR5 cells which specifically bind to the ligand.
The CHO/CCR5 were inoculated on 96 well microplate (5×10^4 cells/well) and cultivated for 24 hours. The medium was removed by means of suction, and to each well was added assay buffer containing Test Compound (1 µM) and then 100 pM of [^125I]-RANTES (Amersham) as ligand. Binding assay was carried out at room temperature for 40 minutes, and assay buffer was removed by means of suction. Each well was washed twice with cooled PBS, and 200 µl of Microscint-20 (Packard Instrument, Inc.) was added to each well. Radio-activity was determined with Top-Count (Packard Instrument, Inc.).
According to the method described above, inhibition rate of Test Compound to CCR5 binding.
As for `CN1CC(C(=O)N(CCCN2CCC(Cc3ccccc3)CC2)c2ccccc2)CC1=O` (stereo not drawn) [Example 1, N-[3-(4-benzyl-1-piperidinyl)propyl]-1-methyl-5-oxo-N-phenyl-3-pyrrolidinecarboxamide hydrochloride], the inhibition at 1 µM stood at 57%.

Regarding `CN1CC(C(=O)N(CCCN2CCC3(C=Cc4ccccc43)CC2)c2ccccc2)CC1=O` (stereo not drawn) [Example 8, N-[3-(indene-1-spiro-4'-piperidin-1'-yl)propyl]-1-methyl-5-oxo-N-phenyl-3-pyrrolidinecarboxamide fumarate], the inhibition at 1 µM was 24%.

Regarding `CN1CC(C(=O)N(CCCN2CCC(C(=O)c3ccc(F)cc3)CC2)c2ccccc2)CC1=O` (stereo not drawn) [Example 13, N-{3-[4-(4-fluorobenzoyl) -1-piperidinyl]propyl}-1-methyl-5-oxo-N-phenyl-3-pyrrolidinecarboxamide], the inhibition at 1 µM worked out at 40%.

For the compound `CN1CC(C(=O)N(CCCCN2CCC(C(=O)c3ccc(F)cc3)CC2)c2ccccc2)CC1=O` (stereo not drawn) [Example 17, N-{4-[4-(4-fluorobenzoyl)-1-piperidinyl]butyl}-1-methyl-5-oxo-N-phenyl-3-pyrrolidinecarboxamide], the inhibition at 1 µM amounted to 22%.

For `CN1CC(C(=O)N(CCCN2CCC(Cc3ccccc3)CC2)c2ccc(Cl)c(Cl)c2)CC1=O` (stereo not drawn) [Example 23, N-[3-(4-benzyl-1-piperidinyl)propyl]-N-(3,4-dichlorophenyl)-1-methyl-5-oxo-3-pyrrolidinecarboxamide hydrochloride], the inhibition at 1 µM came out at 95%.

Take `CN1CC(C(=O)N(CCCN2CCC(Cc3ccccc3)CC2)c2cccc(Cl)c2)CC1=O` (stereo not drawn) [Example 38, N-[3-(4-benzyl-1-piperidinyl)propyl]-N-(3-chlorophenyl)-1-methyl-5-oxo-3-pyrrolidinecarboxamide hydrochloride]: the inhibition at 1 µM stood at 82%.

As for `O=C1CC(C(=O)N(CCCN2CCC(Cc3ccccc3)CC2)c2ccccc2)CN1Cc1ccccc1` (stereo not drawn) [Example 51, 1-benzyl-N-[3-(4-benzyl-1-piperidinyl)propyl]-5-oxo-N-phenyl-3-pyrrolidinecarboxamide], the inhibition at 1 µM came out at 92%.

Regarding `O=C1CC(C(=O)N(CCCN2CCC(Cc3ccccc3)CC2)c2ccccc2)CN1c1ccccc1` (stereo not drawn) [Example 52, N-[3-(4-benzyl-1-piperidinyl)propyl]-5-oxo-N,1-diphenyl-3-pyrrolidinecarboxamide], the inhibition at 1 µM was 76%.

Regarding `CN1CC(C(=O)N(CCCN2CCC(Cc3ccccc3)CC2)Cc2ccccc2)CC1=O` (stereo not drawn) [Example 62, N-benzyl-N-[3-(4-benzyl-1-piperidinyl)propyl]-1-methyl-5-oxo-3-pyrrolidinecarboxamide], the inhibition at 1 µM stood at 67%.

On to `O=C1CC(C(=O)N(CCCN2CCC(Cc3ccccc3)CC2)c2ccccc2)CN1Cc1ccccc1Cl` (stereo not drawn) [Example 76, N-[3-(4-benzyl-1-piperidinyl)propyl]-1-(2-chlorobenzyl)-5-oxo-N-phenyl-3-pyrrolidinecarboxamide], for which the inhibition at 1 µM was 91%.

With `CN1CC(C(=O)N(CCCN2CCC(Cc3ccc(F)cc3)CC2)c2ccc(Cl)c(Cl)c2)CC1=O` (stereo not drawn) [Example 84, N-(3,4-dichlorophenyl)-N-{3-[4-(4-fluorobenzyl)-1-piperidinyl]propyl}-1-methyl-5-oxo-3-pyrrolidinecarboxamide hydrochloride], the inhibition at 1 µM was found to be 92%.

In the case of `O=C1CC(C(=O)N(CCCN2CCC(Cc3ccccc3)CC2)c2ccccc2)CN1CC(F)(F)F` (stereo not drawn) [Example 93, N-[3-(4-benzyl-1-piperidinyl)propyl]-5-oxo-N-phenyl-1-(2,2,2-trifluoroethyl)-3-pyrrolidinecarboxamide], the inhibition at 1 µM turned out to be 90%.
